According to PubChem BioAssay (NCI):
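Each compound was tested at five concentrations against cells in 96-well plates for 48 hours. TGI denotes the concentration required for complete inhibition of growth.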

What was measured:
Experiment in all cases: NCI anticancer screen, dose series, 48 h
SF-539 CNS = system: SF-539 CNS
OVCAR-8 ovarian = system: OVCAR-8 ovarian
HCT-116 colon = system: HCT-116 colon
SK-MEL-2 melanoma = system: SK-MEL-2 melanoma
SR leukemia = system: SR leukemia
OVCAR-5 ovarian = system: OVCAR-5 ovarian
UACC-257 melanoma = system: UACC-257 melanoma
MDA-N = system: MDA-N
NCI/ADR-RES ovarian = system: NCI/ADR-RES ovarian
SK-OV-3 ovarian = system: SK-OV-3 ovarian
HS 578T breast = system: HS 578T breast
RXF 393 renal = system: RXF 393 renal
MCF7 breast = system: MCF7 breast
COLO 205 colon = system: COLO 205 colon
786-0 renal = system: 786-0 renal
SK-MEL-28 melanoma = system: SK-MEL-28 melanoma

| Compound | TGI (SF-539 CNS) | TGI (OVCAR-8 ovarian) | TGI (HCT-116 colon) | TGI (SK-MEL-2 melanoma) | TGI (SR leukemia) | TGI (OVCAR-5 ovarian) | TGI (UACC-257 melanoma) | TGI (MDA-N) | TGI (NCI/ADR-RES ovarian) | TGI (SK-OV-3 ovarian) | TGI (HS 578T breast) | TGI (RXF 393 renal) | TGI (MCF7 breast) | TGI (COLO 205 colon) | TGI (786-0 renal) | TGI (SK-MEL-28 melanoma) |
| --- | --- | --- | --- | --- | --- | --- | --- | --- | --- | --- | --- | --- | --- | --- | --- | --- |
| CCCCCC(CO)C(O)(C(F)(F)F)C(F)(F)F (configuration not stated) | > 10 µM | > 10 µM | > 10 µM | > 10 µM | > 10 µM | > 10 µM | > 10 µM | > 10 µM | > 10 µM | > 10 µM | > 10 µM | > 10 µM | > 10 µM | > 10 µM | > 10 µM | > 10 µM |
| COc1cc(Nc2cnc3cc(F)c(F)cc3n2)cc(OC)c1 | > 100 µM | > 100 µM | > 100 µM | > 100 µM | > 100 µM | > 100 µM | > 100 µM | > 100 µM | > 100 µM | 79.1 µM | > 100 µM | 51.2 µM | > 100 µM | > 100 µM | > 100 µM | > 100 µM |
| CC1(C)CCCCCCC2OC2CCCCCC(C)(C)C1=O (configuration not stated) | > 100 µM | > 100 µM | > 100 µM | > 65.4 µM | > 70 µM | > 100 µM | > 93.5 µM | > 100 µM | > 88.2 µM | > 100 µM | > 100 µM | 49.5 µM | > 73.3 µM | 29.5 µM | > 100 µM | > 100 µM |
| CCOP(=O)(OCC)c1ccc(=O)[nH]c1-c1cccs1 | > 100 µM | > 100 µM | > 100 µM | > 100 µM | > 100 µM | > 100 µM | > 100 µM | > 100 µM | > 100 µM | > 100 µM | > 100 µM | > 100 µM | > 100 µM | > 100 µM | > 100 µM | > 100 µM |
| N#Cc1c(Cl)c2ccccc2n2c1nc1ccccc12 | 42.8 µM | 48.3 µM | 33.5 µM | > 100 µM | 77.7 µM | > 100 µM | > 100 µM | > 100 µM | 65.6 µM | > 100 µM | 63.1 µM | 49.3 µM | > 100 µM | 41.9 µM | 51 µM | > 100 µM |
| O=C1c2c(ccc3c2CCC3)CC12Cc1cc3c(cc1C2)CCC3 | > 100 µM | > 100 µM | > 100 µM | > 100 µM | > 100 µM | > 100 µM | > 100 µM | > 100 µM | > 100 µM | > 100 µM | > 100 µM | > 100 µM | > 100 µM | > 100 µM | > 100 µM | > 100 µM |
| C=C(Br)CN(C(C)=O)C1CCCCC1 | > 100 µM | > 100 µM | > 100 µM | > 100 µM | > 100 µM | > 100 µM | > 100 µM | > 100 µM | > 100 µM | > 100 µM | > 100 µM | > 100 µM | > 100 µM | > 100 µM | > 100 µM | > 100 µM |
| NC(N)=N/N=C/c1c(-c2ccc([N+](=O)[O-])cc2)nc2n1CCS2 | 32.3 µM | 29.2 µM | 23 µM | 22 µM | 5.71 µM | 28 µM | 35.6 µM | 26.5 µM | > 100 µM | 43.2 µM | 39.1 µM | 23.4 µM | 30.3 µM | 7.8 µM | 20.9 µM | 34.8 µM |
| O=C(O)c1ccc2c(c1)CC1(C2)Cc2ccccc2C1=O (configuration not stated) | > 100 µM | > 100 µM | > 100 µM | > 100 µM | > 100 µM | > 100 µM | > 100 µM | > 100 µM | > 100 µM | > 100 µM | > 100 µM | > 100 µM | > 100 µM | > 100 µM | > 100 µM | > 100 µM |
| COc1c2ccccc2c(OC)c2nc(C)ccc12 | > 100 µM | > 100 µM | > 100 µM | > 100 µM | > 79.5 µM | > 100 µM | > 100 µM | > 100 µM | > 100 µM | > 100 µM | > 100 µM | > 100 µM | > 100 µM | > 96.7 µM | > 100 µM | > 100 µM |
| CC(=O)NC1C(O)C(O)C(CO)OC1n1ncc(=O)[nH]c1=O (configuration not stated) | > 100 µM | > 100 µM | > 100 µM | > 100 µM | > 100 µM | > 100 µM | > 100 µM | > 100 µM | > 100 µM | > 100 µM | > 100 µM | > 100 µM | > 100 µM | > 100 µM | > 100 µM | > 100 µM |
| CCCCC(=O)NC1(c2cc3ccccc3s2)CCCCC1 | > 100 µM | > 100 µM | > 100 µM | > 100 µM | > 100 µM | > 100 µM | > 100 µM | > 100 µM | > 100 µM | > 100 µM | > 100 µM | > 100 µM | > 100 µM | > 100 µM | > 100 µM | > 100 µM |
| O=c1cc(CBr)c2ccc(O)cc2o1 | > 100 µM | > 100 µM | > 100 µM | > 100 µM | > 100 µM | > 100 µM | > 100 µM | > 100 µM | > 100 µM | > 100 µM | > 100 µM | > 100 µM | > 100 µM | > 100 µM | > 100 µM | > 100 µM |
| c1ccc(Nc2nnc(Cn3ccc4ccccc43)s2)cc1 | > 100 µM | > 100 µM | > 100 µM | > 100 µM | > 100 µM | > 100 µM | > 100 µM | > 100 µM | > 100 µM | > 100 µM | > 100 µM | > 100 µM | > 100 µM | > 100 µM | > 100 µM | > 100 µM |
| COc1ccc(-c2c(CN3CCOCC3)sc3nc4ccccc4n23)cc1 | 41.7 µM | > 100 µM | > 57 µM | > 100 µM | 15.1 µM | > 74.7 µM | > 100 µM | 5.38 µM | > 42.8 µM | 94.9 µM | > 69.7 µM | > 47.5 µM | > 100 µM | 49.4 µM | > 76.8 µM | 98.6 µM |
| NC1=NN(c2ccccc2)C2(O)c3ccncc3C3=NN(c4ccccc4)C(=O)C132 (configuration not stated) | > 100 µM | > 100 µM | > 100 µM | > 100 µM | > 100 µM | > 100 µM | > 100 µM | > 100 µM | > 100 µM | > 100 µM | > 100 µM | > 100 µM | > 100 µM | > 100 µM | > 100 µM | > 100 µM |
| CC(=O)OC1COC(n2c(-c3ccc(Cl)cc3)cc(-c3ccccc3)c(C#N)c2=S)C(OC(C)=O)C1OC(C)=O (configuration not stated) | 15.2 µM | 21.6 µM | > 51.7 µM | 29.4 µM | > 82.8 µM | > 100 µM | > 100 µM | > 100 µM | 33.8 µM | > 78.7 µM | 24.6 µM | 26.9 µM | > 100 µM | > 64.2 µM | 26.8 µM | > 45.8 µM |
